{"source": "patent US20100137449A1", "about": "“SUBSTITUTED 1,3-CYCLOPENTADIONE MULTI-TARGET PROTEIN KINASE MODULATORS OF CANCER, ANGIOGENESIS AND THE INFLAMMATORY PATHWAYS ASSOCIATED THEREWITH” (METAPROTEOMICS, LLC, priority 2007, published 2010)", "test_in_all_cases": "KinaseProfiler Assay", "key": {"ALK4(h)": {"biological_target": "T1, ALK4(h) (Homo sapiens, UniProt P36896)", "T1 sequence (P36896 24-505)": "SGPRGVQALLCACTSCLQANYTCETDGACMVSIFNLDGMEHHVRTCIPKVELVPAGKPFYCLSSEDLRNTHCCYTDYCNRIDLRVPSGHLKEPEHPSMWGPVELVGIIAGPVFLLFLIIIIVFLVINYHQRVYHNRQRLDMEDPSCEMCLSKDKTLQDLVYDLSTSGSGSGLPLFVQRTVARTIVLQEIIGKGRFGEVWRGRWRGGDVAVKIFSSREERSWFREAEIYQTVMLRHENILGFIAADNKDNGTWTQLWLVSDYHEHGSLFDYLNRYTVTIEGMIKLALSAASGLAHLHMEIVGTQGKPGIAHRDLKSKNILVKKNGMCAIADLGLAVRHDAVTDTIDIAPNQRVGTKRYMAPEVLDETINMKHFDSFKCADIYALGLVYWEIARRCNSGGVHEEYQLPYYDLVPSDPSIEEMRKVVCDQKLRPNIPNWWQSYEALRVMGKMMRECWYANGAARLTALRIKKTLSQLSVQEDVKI"}, "Arg(h)": {"biological_target": "Arg(h) (Homo sapiens, UniProt P42684)", "sequence (P42684 whole entry)": "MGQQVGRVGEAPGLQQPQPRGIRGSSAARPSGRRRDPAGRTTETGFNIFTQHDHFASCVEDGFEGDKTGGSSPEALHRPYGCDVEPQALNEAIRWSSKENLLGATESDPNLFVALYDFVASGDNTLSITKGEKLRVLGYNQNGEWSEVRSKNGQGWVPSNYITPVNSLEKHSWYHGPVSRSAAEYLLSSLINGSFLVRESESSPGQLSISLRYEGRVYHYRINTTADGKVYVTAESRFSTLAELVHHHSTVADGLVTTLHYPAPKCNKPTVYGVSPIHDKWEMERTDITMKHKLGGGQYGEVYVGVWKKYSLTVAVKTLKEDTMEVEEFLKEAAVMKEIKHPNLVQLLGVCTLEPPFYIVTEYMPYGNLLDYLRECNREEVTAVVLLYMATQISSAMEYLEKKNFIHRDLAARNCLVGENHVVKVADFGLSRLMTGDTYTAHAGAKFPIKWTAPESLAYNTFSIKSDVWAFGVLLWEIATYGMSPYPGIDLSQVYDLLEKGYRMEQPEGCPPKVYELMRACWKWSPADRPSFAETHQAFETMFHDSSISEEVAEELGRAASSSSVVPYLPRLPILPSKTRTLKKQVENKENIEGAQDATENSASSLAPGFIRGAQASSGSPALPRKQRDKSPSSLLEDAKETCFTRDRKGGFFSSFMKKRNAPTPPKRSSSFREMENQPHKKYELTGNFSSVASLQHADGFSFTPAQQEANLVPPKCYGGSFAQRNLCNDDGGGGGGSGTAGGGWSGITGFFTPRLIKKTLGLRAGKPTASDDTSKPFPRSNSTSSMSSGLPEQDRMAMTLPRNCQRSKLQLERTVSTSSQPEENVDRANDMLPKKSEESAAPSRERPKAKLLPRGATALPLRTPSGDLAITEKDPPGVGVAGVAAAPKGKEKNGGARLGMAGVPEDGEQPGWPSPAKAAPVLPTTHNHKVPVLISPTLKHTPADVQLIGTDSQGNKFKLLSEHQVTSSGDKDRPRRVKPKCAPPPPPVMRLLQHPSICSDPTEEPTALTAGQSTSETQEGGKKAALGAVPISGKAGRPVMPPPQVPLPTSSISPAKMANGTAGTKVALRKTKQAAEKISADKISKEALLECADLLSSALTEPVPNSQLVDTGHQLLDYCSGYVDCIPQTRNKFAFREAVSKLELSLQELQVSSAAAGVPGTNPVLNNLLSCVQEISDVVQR"}, "EGFR(L858R)(h)": {"biological_target": "EGFR(L858R)(h) (Homo sapiens, UniProt P00533, L858R)"}, "GSK3α(h)": {"biological_target": "GSK3α(h) (Homo sapiens, UniProt P49840)"}, "MKK4(m)": {"biological_target": "T2, MKK4(m) (Mus musculus, UniProt P47809)", "T2 sequence (P47809 1-397)": "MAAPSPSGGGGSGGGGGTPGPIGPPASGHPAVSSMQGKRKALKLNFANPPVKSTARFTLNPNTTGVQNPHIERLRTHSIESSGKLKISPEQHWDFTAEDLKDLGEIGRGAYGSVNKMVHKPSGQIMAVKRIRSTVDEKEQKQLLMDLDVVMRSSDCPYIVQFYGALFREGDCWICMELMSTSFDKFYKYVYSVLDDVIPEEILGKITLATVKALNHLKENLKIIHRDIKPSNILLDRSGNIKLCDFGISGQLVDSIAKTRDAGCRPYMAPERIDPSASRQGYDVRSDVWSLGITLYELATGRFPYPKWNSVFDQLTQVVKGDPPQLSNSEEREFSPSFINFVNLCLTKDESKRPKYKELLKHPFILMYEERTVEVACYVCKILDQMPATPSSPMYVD"}, "PDGFRα(D842V)(h)": {"biological_target": "PDGFRα(D842V)(h) (Homo sapiens, UniProt P16234, D842V)", "sequence (P16234 24-1089 D842V)": "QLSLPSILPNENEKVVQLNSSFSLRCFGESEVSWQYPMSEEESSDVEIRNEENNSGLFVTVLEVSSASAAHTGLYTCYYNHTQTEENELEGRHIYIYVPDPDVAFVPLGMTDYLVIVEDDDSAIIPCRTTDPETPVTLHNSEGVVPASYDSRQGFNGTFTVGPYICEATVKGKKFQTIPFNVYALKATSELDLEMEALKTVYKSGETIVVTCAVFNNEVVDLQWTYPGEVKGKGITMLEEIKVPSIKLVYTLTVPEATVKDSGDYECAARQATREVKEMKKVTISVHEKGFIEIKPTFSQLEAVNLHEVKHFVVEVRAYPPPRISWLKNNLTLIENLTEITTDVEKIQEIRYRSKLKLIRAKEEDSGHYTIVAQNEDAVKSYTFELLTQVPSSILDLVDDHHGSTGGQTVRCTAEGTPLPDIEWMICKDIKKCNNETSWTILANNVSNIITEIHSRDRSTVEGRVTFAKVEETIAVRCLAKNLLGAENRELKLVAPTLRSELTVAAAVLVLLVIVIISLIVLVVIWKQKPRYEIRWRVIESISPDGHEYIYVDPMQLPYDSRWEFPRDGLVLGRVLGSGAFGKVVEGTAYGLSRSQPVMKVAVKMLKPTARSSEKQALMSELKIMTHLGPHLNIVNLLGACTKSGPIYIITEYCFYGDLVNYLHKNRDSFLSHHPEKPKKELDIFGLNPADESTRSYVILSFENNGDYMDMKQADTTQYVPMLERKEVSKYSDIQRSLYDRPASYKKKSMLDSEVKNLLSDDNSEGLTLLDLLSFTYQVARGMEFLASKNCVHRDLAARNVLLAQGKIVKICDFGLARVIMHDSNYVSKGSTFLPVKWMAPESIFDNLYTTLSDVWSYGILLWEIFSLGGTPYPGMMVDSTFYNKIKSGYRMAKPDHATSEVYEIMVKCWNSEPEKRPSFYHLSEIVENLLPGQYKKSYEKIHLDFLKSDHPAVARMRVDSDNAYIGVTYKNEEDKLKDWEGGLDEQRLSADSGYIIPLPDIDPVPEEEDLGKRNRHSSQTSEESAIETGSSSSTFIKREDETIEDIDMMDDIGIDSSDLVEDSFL"}, "PKCγ(h)": {"biological_target": "PKCγ(h) (Homo sapiens, UniProt P05129)"}, "PKCε(h)": {"biological_target": "T3, PKCε(h) (Homo sapiens, UniProt Q02156)", "T3 sequence (Q02156 1-737)": "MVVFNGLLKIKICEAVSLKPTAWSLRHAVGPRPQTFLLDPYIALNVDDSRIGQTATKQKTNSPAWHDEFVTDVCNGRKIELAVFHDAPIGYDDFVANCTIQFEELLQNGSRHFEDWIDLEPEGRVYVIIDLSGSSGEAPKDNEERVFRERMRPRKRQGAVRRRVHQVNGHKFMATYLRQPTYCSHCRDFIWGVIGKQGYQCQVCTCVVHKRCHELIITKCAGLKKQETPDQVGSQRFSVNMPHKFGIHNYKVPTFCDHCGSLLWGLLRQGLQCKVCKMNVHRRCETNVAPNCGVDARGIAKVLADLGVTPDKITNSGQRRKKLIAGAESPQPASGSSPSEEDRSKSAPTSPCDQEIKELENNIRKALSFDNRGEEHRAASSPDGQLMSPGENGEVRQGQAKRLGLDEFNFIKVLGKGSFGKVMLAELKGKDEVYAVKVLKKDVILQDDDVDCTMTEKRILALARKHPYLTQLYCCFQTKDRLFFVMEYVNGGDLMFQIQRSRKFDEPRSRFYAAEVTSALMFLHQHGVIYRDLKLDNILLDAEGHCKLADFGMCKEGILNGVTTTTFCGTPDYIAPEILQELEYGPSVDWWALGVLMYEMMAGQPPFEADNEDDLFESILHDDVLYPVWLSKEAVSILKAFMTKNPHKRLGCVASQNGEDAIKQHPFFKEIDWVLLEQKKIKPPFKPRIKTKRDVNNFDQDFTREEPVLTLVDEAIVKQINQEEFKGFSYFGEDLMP"}, "Ron(h)": {"biological_target": "Ron(h) (Homo sapiens, UniProt Q04912)", "sequence (Q04912 25-1400)": "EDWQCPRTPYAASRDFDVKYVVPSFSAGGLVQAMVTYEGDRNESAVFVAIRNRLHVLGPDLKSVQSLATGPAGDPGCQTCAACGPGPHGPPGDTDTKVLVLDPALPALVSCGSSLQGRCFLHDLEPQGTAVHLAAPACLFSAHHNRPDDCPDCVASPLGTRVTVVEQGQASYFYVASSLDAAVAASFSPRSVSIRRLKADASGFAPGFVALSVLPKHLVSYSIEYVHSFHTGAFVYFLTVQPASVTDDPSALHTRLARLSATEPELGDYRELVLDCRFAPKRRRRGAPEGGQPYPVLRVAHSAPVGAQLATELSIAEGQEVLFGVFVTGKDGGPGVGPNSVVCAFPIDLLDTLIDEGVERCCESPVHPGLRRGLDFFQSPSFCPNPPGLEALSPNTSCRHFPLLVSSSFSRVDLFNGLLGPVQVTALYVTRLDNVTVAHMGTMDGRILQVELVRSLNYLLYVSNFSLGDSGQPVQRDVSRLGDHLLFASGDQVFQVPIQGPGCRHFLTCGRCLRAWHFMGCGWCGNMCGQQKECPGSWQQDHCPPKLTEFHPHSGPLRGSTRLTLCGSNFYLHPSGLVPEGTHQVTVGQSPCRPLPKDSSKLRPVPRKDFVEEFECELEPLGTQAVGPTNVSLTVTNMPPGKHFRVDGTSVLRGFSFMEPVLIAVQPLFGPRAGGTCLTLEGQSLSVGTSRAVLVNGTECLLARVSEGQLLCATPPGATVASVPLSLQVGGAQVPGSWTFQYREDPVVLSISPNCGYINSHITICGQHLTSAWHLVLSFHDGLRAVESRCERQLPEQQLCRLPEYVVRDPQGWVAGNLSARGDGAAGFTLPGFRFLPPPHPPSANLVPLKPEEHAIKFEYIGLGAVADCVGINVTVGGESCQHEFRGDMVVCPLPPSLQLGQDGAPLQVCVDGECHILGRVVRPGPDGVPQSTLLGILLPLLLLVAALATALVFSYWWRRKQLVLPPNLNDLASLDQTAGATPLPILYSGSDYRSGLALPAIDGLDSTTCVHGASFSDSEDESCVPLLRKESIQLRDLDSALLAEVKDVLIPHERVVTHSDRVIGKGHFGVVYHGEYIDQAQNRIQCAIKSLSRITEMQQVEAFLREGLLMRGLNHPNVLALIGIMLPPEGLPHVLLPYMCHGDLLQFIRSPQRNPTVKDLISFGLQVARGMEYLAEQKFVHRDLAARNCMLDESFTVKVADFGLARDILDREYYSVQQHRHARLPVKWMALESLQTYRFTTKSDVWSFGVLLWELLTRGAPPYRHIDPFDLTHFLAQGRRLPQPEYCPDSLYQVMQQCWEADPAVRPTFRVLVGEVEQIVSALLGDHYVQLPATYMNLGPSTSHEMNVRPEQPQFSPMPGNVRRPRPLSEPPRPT"}, "Yes(h)": {"biological_target": "Yes(h) (Homo sapiens, UniProt P07947)", "sequence (P07947 whole entry)": "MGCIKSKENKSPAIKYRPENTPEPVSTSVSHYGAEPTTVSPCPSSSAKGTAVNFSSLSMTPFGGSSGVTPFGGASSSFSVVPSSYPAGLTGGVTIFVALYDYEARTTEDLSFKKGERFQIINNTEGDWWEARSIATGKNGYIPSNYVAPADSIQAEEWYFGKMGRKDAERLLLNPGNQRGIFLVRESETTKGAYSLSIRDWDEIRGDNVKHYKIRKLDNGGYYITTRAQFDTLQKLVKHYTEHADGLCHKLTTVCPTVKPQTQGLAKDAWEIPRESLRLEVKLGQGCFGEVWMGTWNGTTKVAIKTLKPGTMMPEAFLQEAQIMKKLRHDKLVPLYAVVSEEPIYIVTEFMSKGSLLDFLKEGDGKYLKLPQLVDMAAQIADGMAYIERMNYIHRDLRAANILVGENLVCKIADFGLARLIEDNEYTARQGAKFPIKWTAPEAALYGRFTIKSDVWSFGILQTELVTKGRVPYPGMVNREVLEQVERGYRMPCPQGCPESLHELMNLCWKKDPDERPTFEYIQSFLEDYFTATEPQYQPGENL"}}, "data": [{"smiles": "CC(C)CCC(=O)[C@]1(O)C(O)=C(C(=O)C(C)C)C(=O)[C@H]1CCC(C)C", "note": "[TH2, tetrahydroiso-cohumulone]", "values": [{"measurement": "kinase inhibition", "setting": "ALK4(h); 1 μg/ml", "result": "109% of control"}, {"measurement": "kinase inhibition", "setting": "ALK4(h); 5 μg/ml", "result": "104% of control"}, {"measurement": "kinase inhibition", "setting": "ALK4(h); 25 μg/ml", "result": "97% of control"}, {"measurement": "kinase inhibition", "setting": "ALK4(h); 50 μg/ml", "result": "83% of control"}, {"measurement": "kinase inhibition", "setting": "ALK4(h); 100 μg/ml", "result": "63% of control"}, {"measurement": "kinase inhibition", "setting": "Arg(h); 1 μg/ml", "result": "92% of control"}, {"measurement": "kinase inhibition", "setting": "Arg(h); 5 μg/ml", "result": "92% of control"}, {"measurement": "kinase inhibition", "setting": "Arg(h); 25 μg/ml", "result": "69% of control"}, {"measurement": "kinase inhibition", "setting": "Arg(h); 50 μg/ml", "result": "53% of control"}, {"measurement": "kinase inhibition", "setting": "Arg(h); 100 μg/ml", "result": "43% of control"}, {"measurement": "kinase inhibition", "setting": "EGFR(L858R)(h); 1 μg/ml", "result": "109% of control"}, {"measurement": "kinase inhibition", "setting": "EGFR(L858R)(h); 5 μg/ml", "result": "117% of control"}, {"measurement": "kinase inhibition", "setting": "EGFR(L858R)(h); 25 μg/ml", "result": "104% of control"}, {"measurement": "kinase inhibition", "setting": "EGFR(L858R)(h); 50 μg/ml", "result": "90% of control"}, {"measurement": "kinase inhibition", "setting": "EGFR(L858R)(h); 100 μg/ml", "result": "70% of control"}, {"measurement": "kinase inhibition", "setting": "GSK3α(h); 1 μg/ml", "result": "94% of control"}, {"measurement": "kinase inhibition", "setting": "GSK3α(h); 5 μg/ml", "result": "92% of control"}, {"measurement": "kinase inhibition", "setting": "GSK3α(h); 25 μg/ml", "result": "61% of control"}, {"measurement": "kinase inhibition", "setting": "GSK3α(h); 50 μg/ml", "result": "51% of control"}, {"measurement": "kinase inhibition", "setting": "GSK3α(h); 100 μg/ml", "result": "43% of control"}, {"measurement": "kinase inhibition", "setting": "MKK4(m); 1 μg/ml", "result": "120% of control"}, {"measurement": "kinase inhibition", "setting": "MKK4(m); 5 μg/ml", "result": "127% of control"}, {"measurement": "kinase inhibition", "setting": "MKK4(m); 25 μg/ml", "result": "91% of control"}, {"measurement": "kinase inhibition", "setting": "MKK4(m); 50 μg/ml", "result": "95% of control"}, {"measurement": "kinase inhibition", "setting": "MKK4(m); 100 μg/ml", "result": "85% of control"}, {"measurement": "kinase inhibition", "setting": "PDGFRα(D842V)(h); 1 μg/ml", "result": "113% of control"}, {"measurement": "kinase inhibition", "setting": "PDGFRα(D842V)(h); 5 μg/ml", "result": "124% of control"}, {"measurement": "kinase inhibition", "setting": "PDGFRα(D842V)(h); 25 μg/ml", "result": "128% of control"}, {"measurement": "kinase inhibition", "setting": "PDGFRα(D842V)(h); 50 μg/ml", "result": "129% of control"}, {"measurement": "kinase inhibition", "setting": "PDGFRα(D842V)(h); 100 μg/ml", "result": "127% of control"}, {"measurement": "kinase inhibition", "setting": "PKCγ(h); 1 μg/ml", "result": "102% of control"}, {"measurement": "kinase inhibition", "setting": "PKCγ(h); 5 μg/ml", "result": "107% of control"}, {"measurement": "kinase inhibition", "setting": "PKCγ(h); 25 μg/ml", "result": "101% of control"}, {"measurement": "kinase inhibition", "setting": "PKCγ(h); 50 μg/ml", "result": "91% of control"}, {"measurement": "kinase inhibition", "setting": "PKCγ(h); 100 μg/ml", "result": "99% of control"}, {"measurement": "kinase inhibition", "setting": "PKCε(h); 1 μg/ml", "result": "105% of control"}, {"measurement": "kinase inhibition", "setting": "PKCε(h); 5 μg/ml", "result": "102% of control"}, {"measurement": "kinase inhibition", "setting": "PKCε(h); 25 μg/ml", "result": "98% of control"}, {"measurement": "kinase inhibition", "setting": "PKCε(h); 50 μg/ml", "result": "102% of control"}, {"measurement": "kinase inhibition", "setting": "PKCε(h); 100 μg/ml", "result": "90% of control"}, {"measurement": "kinase inhibition", "setting": "Ron(h); 1 μg/ml", "result": "123% of control"}, {"measurement": "kinase inhibition", "setting": "Ron(h); 5 μg/ml", "result": "124% of control"}, {"measurement": "kinase inhibition", "setting": "Ron(h); 25 μg/ml", "result": "123% of control"}, {"measurement": "kinase inhibition", "setting": "Ron(h); 50 μg/ml", "result": "116% of control"}, {"measurement": "kinase inhibition", "setting": "Ron(h); 100 μg/ml", "result": "94% of control"}, {"measurement": "kinase inhibition", "setting": "Yes(h); 1 μg/ml", "result": "92% of control"}, {"measurement": "kinase inhibition", "setting": "Yes(h); 5 μg/ml", "result": "81% of control"}, {"measurement": "kinase inhibition", "setting": "Yes(h); 25 μg/ml", "result": "116% of control"}, {"measurement": "kinase inhibition", "setting": "Yes(h); 50 μg/ml", "result": "111% of control"}, {"measurement": "kinase inhibition", "setting": "Yes(h); 100 μg/ml", "result": "104% of control"}]}]}
